Reference: patent US8722849B2, “Polypeptides” (Novo Nordisk A/S, priority 2011, dated 2014)
Converted amounts (≈) assume the structure as drawn. Where two headings read alike, the source gives them in different places. Starred links: 1 amine or outer side, 2 acyl side, 3 side chain; linkers in the order of their positions; H or OH if unused. Positions of bridges follow the written chain, without caps; N, C: chain ends. Residues, ends and D or L forms follow the SMILES beside them. *: point of attachment. C20 diacid = O=C(O)CCCCCCCCCCCCCCCCCCC(=O)*; C18 diacid = O=C(O)CCCCCCCCCCCCCCCCC(=O)*; γGlu = O=C(O)[C@H](CCC(=O)[*:2])N[*:1]

What was measured:
[1] = Assay (IV) determination of solubility; format: physicochemical
Summary of the method: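 Solubility is measured across pH 3.0–8.0 by mixing a ~500 nmol/ml aqueous polypeptide stock 1:1 with 100 mM glycylglycine or bistrispropane buffers. Samples stand 18 hours at room temperature, then are centrifuged and the soluble concentration is determined by HPLC.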

[2] = Assay (III) ThT fibrillation assay for physical stability; format: physicochemical
Summary of the method: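 Freshly prepared formulations, pH-adjusted, with 1 μM ThT; four or eight replicates incubated at 37 °C under 960 rpm orbital shaking. Fluorescence (ex 444/em 485 nm) read every 20 min; […]. Peptide concentration measured by RP-HPLC before and after the run.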

[3] = biological target: T1, human amylin receptor (amylin 3(a) receptor: human calcitonin receptor + RAMP-3) (Homo sapiens, UniProt O60896+P30988); experiment: Assay (II)a functional CRE-luciferase assay, human amylin receptor; format: cell-based; conditions: Table 2; BHK amylin 3(a)-receptor/CRE-luc cells
T1 construct: expressed in transfected cells; host or cells: BHK570
T1 sequence (P30988 25-474): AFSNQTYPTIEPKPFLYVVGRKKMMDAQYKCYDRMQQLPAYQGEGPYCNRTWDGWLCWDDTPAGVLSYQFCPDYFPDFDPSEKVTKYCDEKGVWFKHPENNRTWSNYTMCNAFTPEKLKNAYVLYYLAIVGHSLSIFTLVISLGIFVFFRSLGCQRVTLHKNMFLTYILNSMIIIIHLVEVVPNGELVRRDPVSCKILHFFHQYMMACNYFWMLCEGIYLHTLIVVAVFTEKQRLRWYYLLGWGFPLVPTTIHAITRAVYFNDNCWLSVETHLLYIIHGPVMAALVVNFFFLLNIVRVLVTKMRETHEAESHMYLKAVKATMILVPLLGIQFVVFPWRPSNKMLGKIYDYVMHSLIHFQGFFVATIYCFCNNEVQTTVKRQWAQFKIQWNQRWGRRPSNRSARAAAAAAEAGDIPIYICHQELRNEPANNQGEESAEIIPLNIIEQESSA
T1 sequence (O60896 24-148 partner): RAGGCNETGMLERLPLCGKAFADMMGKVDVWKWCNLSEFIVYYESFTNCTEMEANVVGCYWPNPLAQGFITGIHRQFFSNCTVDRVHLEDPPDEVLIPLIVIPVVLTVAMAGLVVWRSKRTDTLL

[4] = biological target: T2, human calcitonin receptor (Homo sapiens, UniProt P30988); experiment: Assay (II)a functional CRE-luciferase assay, human calcitonin receptor; format: cell-based; conditions: Table 7; human calcitonin (CTa) receptor
T2 construct: expressed in transfected cells; host or cells: BHK570
T2 sequence (P30988 25-474): T1 sequence (P30988 25-474)

[5] = bistrispropane buffer, pH 6, pH 6.0, read-out: Solubility pH 6.0
[6] = bistrispropane buffer, pH 6.5, pH 6.5, read-out: Solubility pH 6.5
[7] = bistrispropane buffer, pH 7, pH 7.0, 18 hours at room temperature, Table 3, read-out: Solubility pH 7.0
[8] = bistrispropane buffer, pH 7, pH 7.0, read-out: Solubility pH 7.0
[9] = bistrispropane buffer, pH 7.5, pH 7.5, read-out: Solubility pH 7.5
[10] = bistrispropane buffer, pH 8, pH 8.0, read-out: Solubility pH 8.0
[11] = glycylglycine buffer, pH 3, pH 3.0, read-out: Solubility pH 3.0
[12] = glycylglycine buffer, pH 4, pH 4.0, 18 hours at room temperature, Table 2, read-out: Solubility pH 4.0
[13] = glycylglycine buffer, pH 4, pH 4.0, read-out: Solubility pH 4.0
[14] = glycylglycine buffer, pH 5, pH 5.0, read-out: Solubility pH 5.0
[15] = bistrispropane buffer, pH 7, pH 7.0, Table 8, read-out: Solubility pH 7.0

Compound | solubility at 18 h [1, 5] [µM] | solubility at 18 h [1, 6] [µM] | solubility at 18 h [1, 7] [µM] | solubility at 18 h [1, 8] [µM] | solubility at 18 h [1, 9] [µM] | solubility at 18 h [1, 10] [µM] | solubility at 18 h [1, 11] [µM] | solubility at 18 h [1, 12] [µM] | solubility at 18 h [1, 13] [µM] | solubility at 18 h [1, 14] [µM] | ThT pH 4.0 lag time (h) ([2]; ThT fibrillation assay) | EC50 [3] [nM] | EC50 [4] [nM] | solubility at 18 h [1, 15] [µM] | solubility at 18 h ([1]; bistrispropane buffer, pH 7, pH 7.0, Table 9, read-out: Solubility pH 7.0) [µM] | solubility at 18 h ([1]; bistrispropane buffer, pH 7.5, pH 7.5, Table 9, read-out: Solubility pH 7.5) [µM] | ThT pH 4.0 lag time ([2]; Table 8) [h] | ThT pH 4.0 lag time ([2]; Table 9) [h] | ThT pH 4.0 lag time ([2]; ThT fibrillation assay) [h]
CC[C@H](C)[C@H](NC(=O)[C@@H]1CCCN1C(=O)CNC(=O)[C@H](Cc1ccccc1)NC(=O)[C@H](CC(N)=O)NC(=O)[C@H](CC(N)=O)NC(=O)[C@H](CO)NC(=O)[C@H](CO)NC(=O)[C@H](Cc1c[nH]cn1)NC(=O)[C@H](Cc1c[nH]cn1)NC(=O)[C@H](CC(C)C)NC(=O)[C@H](Cc1ccccc1)NC(=O)[C@H](CCC(=O)O)NC(=O)[C@H](C)NC(=O)[C@H](CC(C)C)NC(=O)[C@H](CCCNC(=N)N)NC(=O)[C@H](CCC(N)=O)NC(=O)[C@@H](NC(=O)[C@H](C)NC(=O)[C@@H]1CSSC[C@H](NC(=O)[C@H](Cc2c[nH]cn2)NC(=O)[C@H](Cc2c[nH]cn2)NC(=O)CC[C@H](NC(=O)CCCCCCCCCCCCCCCCC(=O)O)C(=O)O)C(=O)N[C@@H](CC(N)=O)C(=O)N[C@@H]([C@@H](C)O)C(=O)N[C@@H](C)C(=O)N[C@@H]([C@@H](C)O)C(=O)N1)[C@@H](C)O)C(=O)N[C@@H](CC(C)C)C(=O)N1CCC[C@H]1C(=O)N1CCC[C@H]1C(=O)N[C@H](C(=O)N[C@@H](CC(N)=O)C(=O)N[C@H](C(=O)NCC(=O)N[C@@H](CO)C(=O)N[C@@H](CC(N)=O)C(=O)N[C@H](C(=O)N[C@@H](Cc1ccc(O)cc1)C(N)=O)[C@@H](C)O)C(C)C)[C@@H](C)O [Example 47, N-alpha-[(S)-4-Carboxy-4-(17-carboxyheptadecanoylamino)butyryl]-His-[His1,Glu14,His17]-pramlintide] ({C18 diacid-γGlu}-HHCNTATCATQRLAEFLHHSSNNFGPILPPTNVGSNTY-NH2; disulfide 3-8 (inferred); C-terminus assumed) | 168 (≈ 768 µg/mL) | 87 (≈ 398 µg/mL) | 118 (≈ 540 µg/mL) | 118 (≈ 540 µg/mL) | > 200 | > 200 | > 200 | > 200 | > 200 | > 200 | 6 | 0.059 | 0.258 |  |  |  |  |  | 
CC[C@H](C)[C@H](NC(=O)[C@@H]1CCCN1C(=O)CNC(=O)[C@H](Cc1ccccc1)NC(=O)[C@H](CC(N)=O)NC(=O)[C@H](CC(N)=O)NC(=O)[C@H](CO)NC(=O)[C@H](CO)NC(=O)[C@H](CCCNC(=N)N)NC(=O)[C@@H](NC(=O)[C@H](CC(C)C)NC(=O)[C@H](Cc1ccccc1)NC(=O)[C@H](CCC(=O)O)NC(=O)[C@H](C)NC(=O)[C@H](CC(C)C)NC(=O)[C@H](CCCNC(=N)N)NC(=O)[C@H](CCC(N)=O)NC(=O)[C@@H](NC(=O)[C@H](C)NC(=O)[C@@H]1CSSC[C@H](NC(=O)[C@H](Cc2c[nH]cn2)NC(=O)CC[C@H](NC(=O)CCCCCCCCCCCCCCCCCCC(=O)O)C(=O)O)C(=O)N[C@@H](CC(N)=O)C(=O)N[C@@H]([C@@H](C)O)C(=O)N[C@@H](C)C(=O)N[C@@H]([C@@H](C)O)C(=O)N1)[C@@H](C)O)C(C)C)C(=O)N[C@@H](CC(C)C)C(=O)N1CCC[C@H]1C(=O)N1CCC[C@H]1C(=O)N[C@H](C(=O)N[C@@H](CC(N)=O)C(=O)N[C@H](C(=O)NCC(=O)N[C@@H](CO)C(=O)N[C@@H](CC(N)=O)C(=O)N[C@H](C(=O)N1CCC[C@H]1C(N)=O)[C@@H](C)O)C(C)C)[C@@H](C)O [Example 143, N-alpha-[(S)-4-Carboxy-4-(19-carboxynonadecanoylamino)butyryl]-[His1,Glu14,Arg18,Pro37]-pramlintide] ({C20 diacid-γGlu}-HCNTATCATQRLAEFLVRSSNNFGPILPPTNVGSNTP-NH2; disulfide 2-7 (inferred)) | 75 (≈ 329 µg/mL) | 122 (≈ 534 µg/mL) | 165 (≈ 723 µg/mL) | 165 (≈ 723 µg/mL) | > 200 | > 200 | > 200 | > 200 | > 200 | > 200 | 6 | 0.0415 | 0.022 |  |  |  |  |  | 
CC[C@H](C)[C@H](NC(=O)[C@@H]1CCCN1C(=O)CNC(=O)[C@H](Cc1ccccc1)NC(=O)[C@H](CC(N)=O)NC(=O)[C@@H](NC(=O)[C@H](CO)NC(=O)[C@H](CO)NC(=O)[C@H](Cc1c[nH]cn1)NC(=O)[C@H](Cc1c[nH]cn1)NC(=O)[C@H](CC(C)C)NC(=O)[C@H](Cc1ccccc1)NC(=O)[C@H](CCC(=O)O)NC(=O)[C@H](C)NC(=O)[C@H](CC(C)C)NC(=O)[C@H](CCCNC(=N)N)NC(=O)[C@H](CCC(N)=O)NC(=O)[C@@H](NC(=O)[C@H](C)NC(=O)[C@@H]1CSSC[C@H](NC(=O)[C@H](CCCCN)NC(=O)CC[C@H](NC(=O)CCCCCCCCCCCCCCCCCCC(=O)O)C(=O)O)C(=O)N[C@@H](CC(N)=O)C(=O)N[C@@H]([C@@H](C)O)C(=O)N[C@@H](C)C(=O)N[C@@H]([C@@H](C)O)C(=O)N1)[C@@H](C)O)[C@@H](C)O)C(=O)N[C@@H](CC(C)C)C(=O)N1CCC[C@H]1C(=O)N1CCC[C@H]1C(=O)N[C@H](C(=O)N[C@@H](CC(N)=O)C(=O)N[C@H](C(=O)NCC(=O)N[C@@H](CO)C(=O)N[C@@H](CC(N)=O)C(=O)N[C@H](C(=O)N1CCC[C@H]1C(N)=O)[C@@H](C)O)C(C)C)[C@@H](C)O [Example 146, N-alpha-[(S)-4-Carboxy-4-(19-carboxynonadecanoylamino)butyryl]-[Glu14,His17,Thr21,Pro37]-pramlintide] ({C20 diacid-γGlu}-KCNTATCATQRLAEFLHHSSTNFGPILPPTNVGSNTP-NH2; disulfide 2-7 (inferred)) | > 200 | > 200 | > 200 | > 200 | > 200 | > 200 | > 200 | > 200 | > 200 | > 200 | >45 | 0.091 | 0.0595 | > 200 | > 200 | > 200 | >45 | >45 | >45
CC[C@H](C)[C@H](NC(=O)[C@@H]1CCCN1C(=O)CNC(=O)[C@H](Cc1ccccc1)NC(=O)[C@H](CC(N)=O)NC(=O)[C@H](CC(N)=O)NC(=O)[C@H](CO)NC(=O)[C@H](CO)NC(=O)[C@H](Cc1c[nH]cn1)NC(=O)[C@H](Cc1c[nH]cn1)NC(=O)[C@H](CC(C)C)NC(=O)[C@H](Cc1ccccc1)NC(=O)[C@H](CCC(=O)O)NC(=O)[C@H](C)NC(=O)[C@H](CC(C)C)NC(=O)[C@H](CCCNC(=N)N)NC(=O)[C@H](CCC(N)=O)NC(=O)[C@@H](NC(=O)[C@H](C)NC(=O)[C@@H]1CSSC[C@H](NC(=O)CC[C@H](NC(=O)CCCCCCCCCCCCCCCCCCC(=O)O)C(=O)O)C(=O)N[C@@H](CC(N)=O)C(=O)N[C@@H]([C@@H](C)O)C(=O)N[C@@H](C)C(=O)N[C@@H]([C@@H](C)O)C(=O)N1)[C@@H](C)O)C(=O)N[C@@H](CC(C)C)C(=O)N1CCC[C@H]1C(=O)N1CCC[C@H]1C(=O)N[C@H](C(=O)N[C@@H](CC(N)=O)C(=O)N[C@H](C(=O)NCC(=O)N[C@@H](CO)C(=O)N[C@@H](Cc1c[nH]cn1)C(=O)N[C@H](C(=O)N[C@@H](Cc1ccc(O)cc1)C(N)=O)[C@@H](C)O)C(C)C)[C@@H](C)O [Example 75, N-alpha-[(S)-4-Carboxy-4-(19-carboxynonadecanoylamino)butyryl]-[des1,Glu14,His17,His35]-pramlintide] ({C20 diacid-γGlu}-CNTATCATQRLAEFLHHSSNNFGPILPPTNVGSHTY-NH2; disulfide 1-6 (inferred)) | > 200 | 193 (≈ 840 µg/mL) | > 200 | > 200 | > 200 | > 200 | > 200 | > 200 | > 200 | > 200 | 28 | 0.365 | 0.286 | > 200 |  |  | 28 |  | 28
